Results reported in patent publication US20260272879A1, “ANION-BINDING AROMATIC OLIGOAMIDE MACROCYCLES AND METHODS OF MAKING AND USING SAME” (The Research Foundation for The State University of New York, priority 2023, published 2026).

Assays:
[1] = 1H NMR titration, binding of chloride; conditions: n-Bu4N^+ salt, CD3CN/CDCl3 (1/9, v/v), room temperature
Description: ^1H NMR Titration methods. Titrations of 4c and 6c with anions as their tetra-n-butyl ammonium (TBA) salts were carried out by ^1H NMR (400 MHz on Bruker-400) at room temperature (298 K). 0.5 mL of receptor 4c (5.0 mM) or 6c (2.0 mM) were prepared in the rubber-cap NMR tubes. Aliquots of concentrated TBACl or TBAI solution (50 mM for the titration of 4c and 20 mM for the titration of 6c) containing the same amount of receptors were added into the receptor solution using 20 microliter pipette. An initial ^1H NMR spectrum was collected and additional spectra were obtained after each injection of TBACl or TBAI solution. All titration ^1H NMR spectra were stacked together and the chemical shifts of amide protons were then fitted to the proposed 1:1 binding model using BindFit v0.5 (http://app.supramolecular.org/bindfit/).
(§1) Anion binding with four amides, i.e., L1mer-L4mer, was studied in the mixed solvents of CD3CN/CDCl3 (1/9, v/v) by titrating an amide host with 0 to 5 equivalents of tetrabutylammonium (n-Bu4N^+) salt of the corresponding anion. The binding of chloride, bromide, iodide, and nitrate was examined with the four amides in CDCl3 containing 10% CD3CN. The titration data were collected by monitoring the changes in chemical shifts of the backbone amide protons and the inner aromatic protons with varying ratios of the anion guests. Job plots indicate that these linear oligoamides and their anion guests bind in a 1:1 stoichiometry.
(§2) The binding of anions by macrocycle 7c was examined in CH3CN/CHCl3 (6/4, v/v) and in DMSO by titrating with various equivalents of the salts of chloride, iodide. nitrate, and dihydrogen phosphate, with tetrabutylammonium (n-Bu4N^+) being the counterion ion. Following the changes in the chemical shifts of backbone amide protons and “inner” aromatic protons allowed the determination of binding constants.
^1H NMR titration methods. Titrations of c5a and c5b with anions as their tetra-n-butylammonium (TBA), tetra-ethylammonium (TEA) and tetra-methylammonium (TMA) salts were carried out by ^1H NMR (400 MHz) at 25° C. […]

[2] = 1H NMR titration, binding of nitrate; conditions: n-Bu4N^+ salt, CD3CN/CDCl3 (1/9, v/v), room temperature
Text: as §1, §2
^1H NMR titration methods. Titrations of c5a and c5b with anions as their tetra-n-butylammonium (TBA), tetra-ethylammonium (TEA) and tetra-methylammonium (TMA) salts were carried out by ^1H NMR (400 MHz) at 25° C. 0.4 mL of corresponding hosts solutions were prepared in the rubber-cap NMR tubes. Aliquots of concentrated guest solution containing hosts were added into the NMR tubes using 20 microliter pipette. An initial ^1H NMR spectrum was collected and additional spectra were obtained after each injection of guest solution. All titration ^1H NMR spectra were stacked together and the chemical shifts of the internal aromatic CH proton were then fitted to 1:1 binding model using BindFit v0.5 (http://app.supramolecular.org/bindfit/) to evaluate binding constants to anions.

Solubility = format: physicochemical
[3] = pH 8.3, in water; cited from earlier work

**Q.** For `CCCCCCCCCC(=O)Nc1ccc(NC(=O)C(C)(C)COCCCCCCCC)c(C(=O)NCCCCCC)c1` [Compound L1mer], which Ka of chloride [1] is on record?
**A.** 39 M⁻¹

**Q.** Which results are given for `CCCCCCCCCC(=O)Nc1ccc(NC(=O)C(C)(C)COCCCCCCCC)c(C(=O)Nc2ccc(NC(=O)C(C)(C)COCCCCCCCC)c(C(=O)Nc3ccc(NC(=O)C(C)(C)COCCCCCCCC)c(C(=O)Nc4ccc(NC(=O)C(C)(C)COCCCCCCCC)c(C(=O)NCCCCCC)c4)c3)c2)c1` [Compound L4mer]?
**A.** Ka of chloride [1]: over 1,000 M^−1; Ka of nitrate [2]: ~10000 M⁻¹

**Q.** For `COCCOCCOCCOCC(C)(C)C(=O)Nc1ccc2cc1C(=O)Nc1ccc(NC(=O)C(C)(C)COCCOCCOCCOC)c(c1)C(=O)Nc1ccc(NC(=O)C(C)(C)COCCOCCOCCOC)c(c1)C(=O)Nc1ccc(NC(=O)C(C)(C)COCCOCCOCCOC)c(c1)C(=O)Nc1ccc(NC(=O)C(C)(C)COCCOCCOCCOC)c(c1)C(=O)N2` [c5b], which “solubility in organic solvents” value (Solubility; variety of / many organic solvents) is on record?
**A.** soluble

**Q.** What about the solubility in water (Solubility; water) of the same compound?
**A.** ~ 1 mM

**Q.** For “SBP: sulfate-binding protein (SBP) from the gram-negative bacterium S. typhimurium”, which “Ka for the sulfate ion” value [3] is on record?
**A.** 8.3e+06 M⁻¹
